Measured values: ChEMBL document CHEMBL1201862, “PubChem BioAssay data set” (2004)
Calls of active or inactive are those of the source.

Experiments:
[1] = inhibitors of intracellular T. cruzi replication, confirmation, NIH3T3 host cells, beta-gal luminescence (AID 2044); type: functional, cell-based;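 further: intracellular parasites grown in NIH/3T3 mouse fibroblasts as host cells; luminescent beta-galactosidase reporter signal from transgenic T. cruzi replicating inside host cells; inhibitors lower the luminescence signal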
[2] = non-specific cell cytotoxicity, dose response, cytotoxicity control for PAX8 inhibitor project, plate reader, dry powder samples (AID 743021); type: functional, cell-based
[3] = inhibitors of SNCA 5'UTR-driven reporter translation, confirmation, H4 neuroglioma cells, luminescence (AID 1988); type: functional, cell-based
Paired box protein Pax-8 = Paired box protein Pax-8 (Homo sapiens, UniProt Q06710); assay: inhibitors of PAX8-driven TPO luciferase reporter, dose response, RMG-I cells, cherry-pick (AID 687027); type: functional, cell-based;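 further: luciferase reporter driven by Pax8 target thyroperoxidase promoter measured by SteadyGlo luminescence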
[4] = target: T1, Ubiquitin-conjugating enzyme E2 N (Homo sapiens, UniProt P61088); type: functional;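 further: Dose-response confirmation in a TR-FRET assay detecting UBC13-driven polyubiquitin chain formation, inhibition measured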
T1 sequence (P61088 whole entry): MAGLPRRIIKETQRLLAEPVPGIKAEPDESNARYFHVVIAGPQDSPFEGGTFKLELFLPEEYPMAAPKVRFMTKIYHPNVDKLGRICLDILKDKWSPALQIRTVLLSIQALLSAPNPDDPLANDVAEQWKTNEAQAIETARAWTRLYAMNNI

[5] = Luminescence Cell-Based Dose Response HTS to Identify Inhibitors of 5'UTR Stem-Loop Driven Prion Protein mRNA Translation in H4 Neuroglioblastoma Cells. [Related pubchem assays: 1827 (Project Summary), 1813 (Primary HTS)]; type: functional
[6] = cytotoxicity toward NIH3T3 fibroblasts, dose response, counter-screen, cell-based, ATP luminescence, mouse fibroblasts (AID 2010); type: functional;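 further: cells exposed to compound for about 90 hours before reading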
[7] = target: T2, Heat shock factor protein 1 (Mus musculus, UniProt P38532); assay: HSF1 potentiators in luciferase reporter cells, confirmation, cell-based, NIH3T3, luminescence, dose retest (AID 435004); type: functional;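 further: stress induced by proteasome inhibitor MG132 added 30 min after compound; luciferase reporter driven by HSF1 response element in NIH3T3 cells; actives raise luminescence as potentiators of the MG132 stress response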
T2 sequence (P38532 whole entry): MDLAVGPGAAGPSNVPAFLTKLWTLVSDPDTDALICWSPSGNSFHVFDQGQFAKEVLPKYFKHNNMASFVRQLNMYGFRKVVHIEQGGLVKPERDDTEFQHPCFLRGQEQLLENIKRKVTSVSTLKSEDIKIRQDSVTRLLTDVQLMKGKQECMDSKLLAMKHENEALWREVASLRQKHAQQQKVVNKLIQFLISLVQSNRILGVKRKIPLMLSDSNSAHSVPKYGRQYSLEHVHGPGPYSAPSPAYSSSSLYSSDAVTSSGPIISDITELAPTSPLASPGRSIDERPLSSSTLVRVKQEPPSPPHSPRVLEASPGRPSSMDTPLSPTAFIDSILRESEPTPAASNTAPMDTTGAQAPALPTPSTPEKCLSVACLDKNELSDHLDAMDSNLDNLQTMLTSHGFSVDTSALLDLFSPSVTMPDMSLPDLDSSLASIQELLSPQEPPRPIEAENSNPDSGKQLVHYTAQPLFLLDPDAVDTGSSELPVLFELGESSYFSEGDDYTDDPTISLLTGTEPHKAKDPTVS

INS1 = assay: beta cell apoptosis inhibitors, cytokine rescue, dose response, luminescence, retest (AID 449756); type: functional, cell-based; settings: Rattus norvegicus;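 further: cell death triggered by IL-1 beta plus TNF-alpha plus IFN-gamma mixture; protective hits raise ATP signal compared with cytokine alone wells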
[8] = inhibitors of firefly luciferase expression or activity, dose response, H4 neuroglioma cells, luminescence (AID 1990); type: functional, cell-based
[9] = NIH-3T3 fibroblast cytotoxicity, dose response, cytotoxicity control, cell-based, fluorescence, Alamar Blue, secondary assay (AID 2327); type: functional;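 further: NIH-3T3 mouse fibroblasts cultured with fluconazole at 8 µg/mL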
[10] = target: Induced myeloid leukemia cell differentiation protein Mcl-1 (Homo sapiens, UniProt Q07820); type: functional
Genome polyprotein = Genome polyprotein (dengue virus type 2, UniProt P29990); assay: Dengue-2 NS5 methyltransferase inhibitors, primary screen, biochemical, confirmation dose response (AID 588689); type: functional
[11] = target: T3, Mannose-6-phosphate isomerase (Homo sapiens, UniProt P34949); assay: human PMI inhibitors, high substrate, primary screen, biochemical, fluorescence intensity, high mannose 6-phosphate (AID 1220)
T3 sequence (P34949 whole entry): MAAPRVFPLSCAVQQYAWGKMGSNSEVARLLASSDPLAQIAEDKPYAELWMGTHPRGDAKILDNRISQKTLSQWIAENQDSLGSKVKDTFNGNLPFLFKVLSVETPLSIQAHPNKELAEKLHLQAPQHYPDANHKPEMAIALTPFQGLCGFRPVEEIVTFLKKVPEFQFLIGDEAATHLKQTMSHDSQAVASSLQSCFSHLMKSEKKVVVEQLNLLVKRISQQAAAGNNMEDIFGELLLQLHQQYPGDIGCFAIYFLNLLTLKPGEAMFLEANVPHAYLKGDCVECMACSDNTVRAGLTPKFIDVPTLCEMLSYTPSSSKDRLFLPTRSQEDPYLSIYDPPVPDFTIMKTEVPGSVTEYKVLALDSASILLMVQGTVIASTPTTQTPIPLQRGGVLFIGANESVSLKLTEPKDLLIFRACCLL

[12] = C. albicans growth with fluconazole, confirmation, fluorescence, retest (AID 2467); type: functional, cell-based
Caspase-6 = target: T4, Caspase-6 (Homo sapiens, UniProt P55212); assay: human caspase-6 inhibitors, dose response, biochemical, VEID-R110 fluorescence, cherry-pick (AID 720632)
T4 sequence (P55212 whole entry): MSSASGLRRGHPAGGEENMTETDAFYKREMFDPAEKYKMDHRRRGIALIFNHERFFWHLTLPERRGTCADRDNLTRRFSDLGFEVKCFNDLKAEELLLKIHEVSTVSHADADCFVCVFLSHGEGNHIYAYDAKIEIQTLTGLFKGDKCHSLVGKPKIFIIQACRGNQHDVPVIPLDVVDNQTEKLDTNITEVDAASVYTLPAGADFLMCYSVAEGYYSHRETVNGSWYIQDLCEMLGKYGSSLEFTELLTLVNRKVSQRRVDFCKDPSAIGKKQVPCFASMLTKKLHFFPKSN

Albumin = Albumin (Bos taurus, UniProt P02769); assay: Counterscreen for inhibitors of T-cell receptor (TCR)-CD3 interaction: Fluorescence-based biochemical high throughput dose response assay to identify inhibitors of T-cell receptor (TCR)-CD3 interaction using a TAMRA-labeled BSA probe.; type: functional
[13] = target: T5, High affinity choline transporter 1 (Homo sapiens, UniProt Q9GZV3); assay: CHT inhibitors, dose response, cell-based, 5-point CRC, membrane potential dye (AID 504840); type: functional
T5 sequence (Q9GZV3 whole entry): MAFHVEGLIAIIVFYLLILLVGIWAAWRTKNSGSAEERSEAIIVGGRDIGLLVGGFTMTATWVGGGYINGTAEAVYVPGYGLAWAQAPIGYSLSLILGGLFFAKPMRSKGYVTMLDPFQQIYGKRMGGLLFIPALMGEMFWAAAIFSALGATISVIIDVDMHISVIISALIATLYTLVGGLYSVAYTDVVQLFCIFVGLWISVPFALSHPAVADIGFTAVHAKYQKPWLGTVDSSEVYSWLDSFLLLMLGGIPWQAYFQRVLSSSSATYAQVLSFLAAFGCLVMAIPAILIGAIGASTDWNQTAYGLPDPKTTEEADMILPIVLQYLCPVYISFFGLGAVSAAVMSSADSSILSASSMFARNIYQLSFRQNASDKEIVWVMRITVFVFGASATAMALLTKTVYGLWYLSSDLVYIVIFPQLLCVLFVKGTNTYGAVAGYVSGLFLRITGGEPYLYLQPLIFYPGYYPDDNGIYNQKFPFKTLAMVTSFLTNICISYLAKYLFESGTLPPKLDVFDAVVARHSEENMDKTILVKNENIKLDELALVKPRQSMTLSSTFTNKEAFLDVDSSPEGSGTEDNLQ

Streptokinase A = target: T6, Streptokinase A (Streptococcus pyogenes serotype M1, UniProt P10520); assay: S. pyogenes streptokinase expression inhibitors, potency, dose response, plasminogen activation absorbance, OD405 (AID 1914); type: functional, Streptococcus pyogenes M1 GAS;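 further: secreted streptokinase activity via plasminogen activation per viability signal from cell pellet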
T6 sequence (P10520 whole entry): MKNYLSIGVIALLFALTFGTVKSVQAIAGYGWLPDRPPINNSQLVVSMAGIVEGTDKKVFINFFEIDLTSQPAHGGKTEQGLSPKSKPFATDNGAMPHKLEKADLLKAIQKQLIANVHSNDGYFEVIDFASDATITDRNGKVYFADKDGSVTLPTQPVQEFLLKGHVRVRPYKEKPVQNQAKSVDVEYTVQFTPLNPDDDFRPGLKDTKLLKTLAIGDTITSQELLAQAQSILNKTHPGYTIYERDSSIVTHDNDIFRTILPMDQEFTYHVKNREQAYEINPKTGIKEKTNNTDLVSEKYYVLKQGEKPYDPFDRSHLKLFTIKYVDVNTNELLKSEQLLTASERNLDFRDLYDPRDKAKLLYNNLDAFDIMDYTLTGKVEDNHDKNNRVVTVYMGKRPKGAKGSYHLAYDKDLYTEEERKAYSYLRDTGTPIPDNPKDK

Aminopeptidase N = target: T7, Aminopeptidase N (Plasmodium falciparum FcB1/Columbia, UniProt O96935); assay: P. falciparum M1AAP inhibitors, biochemical, fluorogenic H-Leu-NHMec substrate, 1536-well (AID 1445); design: species or system Plasmodium falciparum 3D7, 3D7
T7 sequence (O96935 whole entry): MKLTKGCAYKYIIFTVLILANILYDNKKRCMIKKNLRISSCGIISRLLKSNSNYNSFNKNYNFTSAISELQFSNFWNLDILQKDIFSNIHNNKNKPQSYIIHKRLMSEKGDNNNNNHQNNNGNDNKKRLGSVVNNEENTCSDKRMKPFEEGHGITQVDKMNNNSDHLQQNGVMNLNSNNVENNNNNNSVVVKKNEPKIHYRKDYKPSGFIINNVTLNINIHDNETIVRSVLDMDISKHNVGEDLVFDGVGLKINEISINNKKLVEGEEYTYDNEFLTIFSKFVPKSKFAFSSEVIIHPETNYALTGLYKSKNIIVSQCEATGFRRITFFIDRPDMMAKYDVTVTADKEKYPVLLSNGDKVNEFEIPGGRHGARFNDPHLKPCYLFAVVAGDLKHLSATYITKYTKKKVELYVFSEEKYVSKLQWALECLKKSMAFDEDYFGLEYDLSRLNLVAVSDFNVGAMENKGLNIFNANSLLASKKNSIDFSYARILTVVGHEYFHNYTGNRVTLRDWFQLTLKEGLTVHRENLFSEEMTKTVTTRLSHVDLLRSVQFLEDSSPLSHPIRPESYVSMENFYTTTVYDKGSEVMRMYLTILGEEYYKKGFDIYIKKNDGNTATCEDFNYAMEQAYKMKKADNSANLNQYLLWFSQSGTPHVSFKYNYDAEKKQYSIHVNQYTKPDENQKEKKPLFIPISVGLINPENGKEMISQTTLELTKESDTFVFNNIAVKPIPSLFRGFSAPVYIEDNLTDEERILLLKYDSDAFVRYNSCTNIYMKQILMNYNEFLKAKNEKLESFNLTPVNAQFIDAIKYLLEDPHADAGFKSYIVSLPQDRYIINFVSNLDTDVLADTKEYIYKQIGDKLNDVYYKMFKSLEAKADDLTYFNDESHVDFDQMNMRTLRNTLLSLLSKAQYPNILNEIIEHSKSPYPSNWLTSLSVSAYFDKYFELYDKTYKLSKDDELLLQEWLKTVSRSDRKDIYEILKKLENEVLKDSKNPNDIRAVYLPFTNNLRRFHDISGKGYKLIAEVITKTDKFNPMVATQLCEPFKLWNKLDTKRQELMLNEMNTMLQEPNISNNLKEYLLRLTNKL

[14] = target: Eukaryotic translation initiation factor 4E (Mus musculus, UniProt P63073); assay: eIF4E–eIF4G protein interaction inhibitors, dose response, biochemical, TR-FRET (AID 855); type: functional;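 further: potency for disrupting eIF4E binding to eIF4GI seen as loss of FRET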
[15] = target: T8, Long-chain-fatty-acid--AMP ligase FadD28 (Mycobacterium tuberculosis, UniProt P9WQ59); assay: Fluorescence polarization aasay to screen for inhibitors that compete for the binding of FadD28 to a bisubstrate Measured in Biochemical System Using Plate Reader - 2147-01_Inhibitor_Dose_CherryPick_Activity.; type: functional, Mycobacterium tuberculosis H37Rv
T8 sequence (P9WQ59 whole entry): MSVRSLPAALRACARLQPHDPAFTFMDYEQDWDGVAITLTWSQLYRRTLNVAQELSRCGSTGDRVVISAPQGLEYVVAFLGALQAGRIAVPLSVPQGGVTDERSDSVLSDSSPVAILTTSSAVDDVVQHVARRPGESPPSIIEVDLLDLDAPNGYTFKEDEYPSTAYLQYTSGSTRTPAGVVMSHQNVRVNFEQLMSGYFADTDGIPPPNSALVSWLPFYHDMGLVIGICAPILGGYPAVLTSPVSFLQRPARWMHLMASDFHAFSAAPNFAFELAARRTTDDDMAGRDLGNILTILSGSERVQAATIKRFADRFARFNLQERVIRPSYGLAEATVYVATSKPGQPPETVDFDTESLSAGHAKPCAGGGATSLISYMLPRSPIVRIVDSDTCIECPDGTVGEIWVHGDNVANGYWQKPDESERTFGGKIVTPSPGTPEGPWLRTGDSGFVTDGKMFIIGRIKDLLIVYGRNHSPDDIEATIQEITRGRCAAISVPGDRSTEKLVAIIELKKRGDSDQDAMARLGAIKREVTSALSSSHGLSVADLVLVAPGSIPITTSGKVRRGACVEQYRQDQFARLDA

[16] = system: Streptococcus sp. 'group A'; assay: growth inhibition of control SK(-) GAS strain, dose response, counter-screen for streptokinase expression inhibitor project, luminescence, kanamycin, BacTiterGlo, confirmation (AID 1900); type: functional, organism-based
Streptococcus = assay: Group A Streptococcus viability loss, dose response, counter-screen for streptokinase expression inhibitor project, luminescence, BacTiterGlo (AID 1915); type: functional, organism-based;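 further: potency for reduction of bacterial viability or growth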

Albumin, sequence (P02769 whole entry): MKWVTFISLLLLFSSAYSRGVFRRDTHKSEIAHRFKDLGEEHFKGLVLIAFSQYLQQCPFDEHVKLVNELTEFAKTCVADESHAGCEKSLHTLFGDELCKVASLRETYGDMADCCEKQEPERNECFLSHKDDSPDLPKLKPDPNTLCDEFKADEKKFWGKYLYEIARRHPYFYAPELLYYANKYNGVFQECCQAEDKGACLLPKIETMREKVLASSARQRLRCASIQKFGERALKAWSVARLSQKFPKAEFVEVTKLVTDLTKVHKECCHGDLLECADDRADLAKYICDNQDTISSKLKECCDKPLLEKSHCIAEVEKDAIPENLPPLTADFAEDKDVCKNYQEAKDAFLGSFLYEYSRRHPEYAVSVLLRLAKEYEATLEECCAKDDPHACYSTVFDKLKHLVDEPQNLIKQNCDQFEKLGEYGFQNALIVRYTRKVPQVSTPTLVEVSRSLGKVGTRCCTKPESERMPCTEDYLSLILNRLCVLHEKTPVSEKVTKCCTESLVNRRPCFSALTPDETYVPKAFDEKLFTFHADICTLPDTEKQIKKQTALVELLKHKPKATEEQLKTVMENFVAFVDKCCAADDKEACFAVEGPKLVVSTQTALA
Genome polyprotein, sequence (P29990 2492-3391 limits assumed): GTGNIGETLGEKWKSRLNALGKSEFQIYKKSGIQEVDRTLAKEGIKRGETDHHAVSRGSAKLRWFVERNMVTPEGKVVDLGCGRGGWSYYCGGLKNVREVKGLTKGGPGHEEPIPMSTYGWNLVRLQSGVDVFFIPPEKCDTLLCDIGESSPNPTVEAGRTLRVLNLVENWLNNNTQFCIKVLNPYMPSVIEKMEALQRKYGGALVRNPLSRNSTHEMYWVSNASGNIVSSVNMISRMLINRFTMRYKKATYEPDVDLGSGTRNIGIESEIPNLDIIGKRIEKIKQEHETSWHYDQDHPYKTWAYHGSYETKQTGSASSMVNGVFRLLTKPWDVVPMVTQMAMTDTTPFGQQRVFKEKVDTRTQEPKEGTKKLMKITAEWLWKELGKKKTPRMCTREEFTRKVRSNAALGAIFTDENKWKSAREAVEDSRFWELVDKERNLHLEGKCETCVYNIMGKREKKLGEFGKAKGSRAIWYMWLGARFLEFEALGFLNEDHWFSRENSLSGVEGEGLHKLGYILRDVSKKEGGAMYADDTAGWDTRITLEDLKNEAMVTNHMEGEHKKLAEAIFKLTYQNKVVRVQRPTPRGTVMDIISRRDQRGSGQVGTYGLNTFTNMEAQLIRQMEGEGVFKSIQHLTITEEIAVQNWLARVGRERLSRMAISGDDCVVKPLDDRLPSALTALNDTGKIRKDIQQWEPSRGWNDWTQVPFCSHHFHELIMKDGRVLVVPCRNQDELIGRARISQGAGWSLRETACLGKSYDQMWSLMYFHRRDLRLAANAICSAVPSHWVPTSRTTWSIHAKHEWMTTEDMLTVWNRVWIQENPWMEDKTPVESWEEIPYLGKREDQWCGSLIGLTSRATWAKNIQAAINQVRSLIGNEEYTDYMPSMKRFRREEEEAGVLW
Paired box protein Pax-8, sequence (Q06710 whole entry): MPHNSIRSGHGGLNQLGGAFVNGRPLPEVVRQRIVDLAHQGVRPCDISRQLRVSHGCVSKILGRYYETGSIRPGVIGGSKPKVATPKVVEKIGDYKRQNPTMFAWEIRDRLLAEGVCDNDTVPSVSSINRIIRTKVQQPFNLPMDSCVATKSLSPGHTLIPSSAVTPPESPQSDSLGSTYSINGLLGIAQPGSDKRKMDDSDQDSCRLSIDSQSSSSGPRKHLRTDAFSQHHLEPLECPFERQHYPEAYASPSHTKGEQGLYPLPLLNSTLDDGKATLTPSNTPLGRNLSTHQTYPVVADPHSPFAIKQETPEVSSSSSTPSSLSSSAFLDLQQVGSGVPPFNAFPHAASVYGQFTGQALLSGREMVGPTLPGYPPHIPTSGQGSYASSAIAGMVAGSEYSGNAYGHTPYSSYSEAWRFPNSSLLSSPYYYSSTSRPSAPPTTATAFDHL
Eukaryotic translation initiation factor 4E, sequence (P63073 whole entry): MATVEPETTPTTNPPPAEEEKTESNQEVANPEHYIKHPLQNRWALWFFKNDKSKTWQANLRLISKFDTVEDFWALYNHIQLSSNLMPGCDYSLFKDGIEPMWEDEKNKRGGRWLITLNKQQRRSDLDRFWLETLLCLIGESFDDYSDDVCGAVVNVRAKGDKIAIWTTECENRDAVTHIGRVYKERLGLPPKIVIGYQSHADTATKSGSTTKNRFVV
Induced myeloid leukemia cell differentiation protein Mcl-1, sequence (Q07820 whole entry): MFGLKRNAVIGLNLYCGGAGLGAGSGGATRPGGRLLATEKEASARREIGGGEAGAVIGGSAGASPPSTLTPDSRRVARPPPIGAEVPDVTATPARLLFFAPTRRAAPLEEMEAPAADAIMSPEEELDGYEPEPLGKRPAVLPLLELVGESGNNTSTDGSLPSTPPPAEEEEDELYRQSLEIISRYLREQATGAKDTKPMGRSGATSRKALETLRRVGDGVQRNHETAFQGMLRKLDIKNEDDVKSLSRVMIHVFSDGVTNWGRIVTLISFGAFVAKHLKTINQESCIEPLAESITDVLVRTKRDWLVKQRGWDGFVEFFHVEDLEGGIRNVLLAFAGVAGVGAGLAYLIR

COc1ccc(/C=N/Nc2cc(C)nc3ccc(Br)cc23)cc1
EC50 [1]: 1.55 µM (active)
AC50 [2]: 26.8 µM (active)
EC50 [3]: 7.61 µM (active)
AC50 (Paired box protein Pax-8): 8.78 µM (active)
IC50 [4]: > 20 µM (inactive)
EC50 [5]: 8.17 µM (active)
EC50 [6]: 8.92 µM (active)
EC50 [7]: > 260 µM (inactive)
AC50 (INS1): 5.79 µM (active)
EC50 [8]: > 120 µM (not active)

O=C(CCN1CCN(c2ccccc2)CC1)N/N=C/c1ccc(O)c(O)c1O
EC50 [9]: > 150 µM (inactive)
IC50 [10]: 6.59 µM (active)
IC50 (Genome polyprotein): 30.1 µM (active)
IC50 [11]: > 50 µM (not active)
EC50 [12]: 3.04 µM (active)
AC50 (Caspase-6): 1.11 µM (active)
IC50 (Albumin): > 94.1 µM (inactive)

O=[N+]([O-])c1cc(Br)c(O)c(/C=N/Nc2nnnn2-c2cccc3ccccc23)c1
IC50 [13]: 30.2 µM (active)
EC50 (Streptokinase A): > 150 µM (not active)
EC50 [9]: > 150 µM (inconclusive)
IC50 (Aminopeptidase N): 6.79 µM (active)
IC50 [14]: > 64 µM (inactive)
EC50 [12]: > 38 µM (not active)
IC50 (Albumin): > 94.1 µM (inactive)
AC50 [15]: 15.6 µM (active)
EC50 [16]: 3.69 µM (active)
EC50 (Streptococcus): > 150 µM (not active)
